Assay results: patent US20240300942A1, “SMALL MOLECULES FOR TREATEMENT OF CANCER” (VRise Therapeutics Inc., priority 2021, published 2024)

How the values were obtained:
MIAPACA-2 cell line = assay: In vitro cell proliferation assay (CCK-8) in MIAPACA-2 cell line; type: cell-based; settings: Homo sapiens, MIA PaCa-2, 72 hours; for inhibition at 3 µM: TC1: Test Concentration of 3 uM; for inhibition at 10 µM: TC2: Test Concentration of 10 uM
Method: (§1) Growth inhibition assays is to be carried out using 10% FBS supplemented media. Cells are to be seeded at a desired concentration of 1,500-6,000 cells/well in a 96-well plate. Test compounds at a concentration range from 1 to 30 uM will be added after 24 hours. Growth will be assessed using the CCK-8 kit for measuring reduction at 0 h (prior to the addition of the test compound) and 72 hours after the addition of test compound. Absorbance read on a BIO-RAD iMark Microplate or any equivalent microplate reader at a wavelength of 450 nm. Data was analysed and percent inhibition due to the test compound compared to the control is calculated accordingly.

NCI-H358 cell line = assay: In vitro cell proliferation assay (CCK-8) in NCI-H358 cell line; type: cell-based; settings: Homo sapiens, 72 hours; for inhibition at 3 µM: TC1: Test Concentration of 3 uM; for inhibition at 10 µM: TC2: Test Concentration of 10 uM
Method: as §1

Structure (SMILES) | inhibition at 3 µM (MIAPACA-2 cell line) | inhibition at 10 µM (MIAPACA-2 cell line) | inhibition at 3 µM (NCI-H358 cell line) | inhibition at 10 µM (NCI-H358 cell line)
C=CC(=O)N1CCN(c2nc(N3CC(C)OC(C)C3)c(C#N)c3c2CCN(c2cccc4ccccc24)C3)CC1CC#N (racemic) [Ex 13, 1-(4-acryloyl-3-(cyanomethyl)piperazin-1-yl)-3-(2,6-dimethylmorpholino)-6-(naphthalen-1-yl)-5,6,7,8-tetrahydro-2,6-naphthyridine-4-carbonitrile] | 75 to 100% | 75 to 100% |  | 
C=CC(=O)N1CCN(c2nc(N3CC(C)OC(C)C3)c(C#N)c3c2CCN(c2cccc4ccccc24)C3)C[C@@H]1CC#N (single isomer, unassigned) [Ex 14] | 75 to 100% | 75 to 100% |  | 
C=CC(=O)N1CCN(c2nc(N3CC(C)OC(C)C3)c(C#N)c3c2CCN(c2cccc4ccccc24)C3)C[C@H]1CC#N (single isomer, unassigned) [Ex 15] | 75 to 100% | 75 to 100% |  | 
C=CC(=O)N1CCN(c2nc(N3CCS(=O)(=O)CC3)c(C#N)c3c2CCN(c2cccc4ccccc24)C3)CC1 [Ex 1, 1-(4-acryloylpiperazin-1-yl)-3-(1,1-dioxidothiomorpholino)-6-(naphthalen-1-yl)-5,6,7,8-tetrahydro-2,6-naphthyridine-4-carbonitrile] |  | 75 to 100% |  | 
C=CC(=O)N1CCN(c2nc(OC[C@@H]3CCCN3C)c(C#N)c3c2CCN(c2cccc4cccc(Cl)c24)C3)CC1 [Ex 8, (S)-1-(4-acryloylpiperazin-1-yl)-6-(8-chloronaphthalen-1-yl)-3-((1-methylpyrrolidin-2-yl)methoxy)-5,6,7,8-tetrahydro-2,6-naphthyridine-4-carbonitrile] | 25 to 50% | 75 to 100% |  | 
C=CC(=O)N1CCN(c2nc(OC[C@@H]3CCCN3C)c(C#N)c3c2CCN(c2cc(O)cc4ccccc24)C3)CC1 [Ex 9, (S)-1-(4-acryloylpiperazin-1-yl)-6-(3-hydroxynaphthalen-1-yl)-3-((1-methylpyrrolidin-2-yl)methoxy)-5,6,7,8-tetrahydro-2,6-naphthyridine-4-carbonitrile] | 75 to 100% | 75 to 100% |  | 
C=C(F)C(=O)N1CCN(c2nc(OC[C@@H]3CCCN3C)c(C#N)c3c2CCN(c2ncnc4ccccc24)C3)CC1 [Ex 10, (S)-1-(4-(2-fluoroacryloyl)piperazin-1-yl)-3-((1-methylpyrrolidin-2-yl)methoxy)-6-(quinazolin-4-yl)-5,6,7,8-tetrahydro-2,6-naphthyridine-4-carbonitrile] | 75 to 100% | 75 to 100% |  | 
C=CS(=O)(=O)N1CCN(c2nc(OC[C@@H]3CCCN3C)c(C#N)c3c2CCN(c2cccc4cccc(Cl)c24)C3)CC1 [Ex 11, (S)-6-(8-chloronaphthalen-1-yl)-3-((1-methylpyrrolidin-2-yl)methoxy)-1-(4-(vinylsulfonyl)piperazin-1-yl)-5,6,7,8-tetrahydro-2,6-naphthyridine-4-carbonitrile] | 75 to 100% | 75 to 100% |  | 
C=C(F)C(=O)N1CCN(c2nc(OC[C@@H]3CCCN3C)c(C#N)c3c2CCN(c2cccc4cccc(Cl)c24)C3)CC1C (stereo partly drawn) [Ex 12, 6-(8-chloronaphthalen-1-yl)-1-(4-(2-fluoroacryloyl)-3-methylpiperazin-1-yl)-3-(((S)-1-methylpyrrolidin-2-yl)methoxy)-5,6,7,8-tetrahydro-2,6-naphthyridine-4-carbonitrile] | 50 to 75% | 75 to 100% |  | 
C=CC(=O)N1CCN(c2nc(OC[C@@H]3CCCN3C)c(C#N)c3c2CCN(c2cccc4ccccc24)C3)C[C@@H]1CC#N [Ex 17, 1-((S)-4-acryloyl-3-(cyanomethyl)piperazin-1-yl)-3-(((S)-1-methylpyrrolidin-2-yl)methoxy)-6-(naphthalen-1-yl)-5,6,7,8-tetrahydro-2,6-naphthyridine-4-carbonitrile] | 75 to 100% | 75 to 100% |  | 
C=CC(=O)N1CCN(c2nc(OC[C@@H]3CCCN3C)c(C#N)c3c2CCN(c2cccc4ccccc24)C3)C[C@H]1CC#N [Ex 18, 1-((R)-4-acryloyl-3-(cyanomethyl)piperazin-1-yl)-3-(((S)-1-methylpyrrolidin-2-yl)methoxy)-6-(naphthalen-1-yl)-5,6,7,8-tetrahydro-2,6-naphthyridine-4-carbonitrile] | 75 to 100% | 75 to 100% |  | 
C=CC(=O)N1CCN(c2nc(OC[C@@H]3CCCN3C)c(C#N)c3c2CCN(c2cc(O)cc4ccccc24)C3)CC1CC#N (stereo partly drawn) [Ex 19, 1-(4-acryloyl-3-(cyanomethyl)piperazin-1-yl)-6-(3-hydroxynaphthalen-1-yl)-3-(((S)-1-methylpyrrolidin-2-yl)methoxy)-5,6,7,8-tetrahydro-2,6-naphthyridine-4-carbonitrile] | 75 to 100% | 75 to 100% |  | 
C=C(F)C(=O)N1CCN(c2nc(OC[C@@H]3CCCN3C)c(C#N)c3c2CCN(c2cccc4ccccc24)C3)CC1CC#N (stereo partly drawn) [Ex 20, 1-(3-(cyanomethyl)-4-(2-fluoroacryloyl)piperazin-1-yl)-3-(((S)-1-methylpyrrolidin-2-yl)methoxy)-6-(naphthalen-1-yl)-5,6,7,8-tetrahydro-2,6-naphthyridine-4-carbonitrile] | 50 to 75% | 75 to 100% |  | 
C=CC(=O)N1CCN(c2nc(OC[C@@H]3CCCN3C)c(C#N)c3c2CCN(c2cncc4ccccc24)C3)CC1 [Ex 21, (S)-1-(4-acryloylpiperazin-1-yl)-6-(isoquinolin-4-yl)-3-((1-methylpyrrolidin-2-yl)methoxy)-5,6,7,8-tetrahydro-2,6-naphthyridine-4-carbonitrile] | 50 to 75% | 50 to 75% |  | 
C=C(F)C(=O)N1CCN(c2nc(OC[C@@H]3CCCN3C)c(C#N)c3c2CCN(c2cccc4cccc(Cl)c24)C3)CC1CC#N (stereo partly drawn) [Ex 26, 6-(8-chloronaphthalen-1-yl)-1-(3-(cyanomethyl)-4-(2-fluoroacryloyl)piperazin-1-yl)-3-(((S)-1-methylpyrrolidin-2-yl)methoxy)-5,6,7,8-tetrahydro-2,6-naphthyridine-4-carbonitrile] |  |  | 25 to 50% | 75 to 100%
C=C(F)C(=O)N1CCN(c2nc(OC[C@@H]3CCCN3C)c(C#N)c3c2CCN(c2cccc4cccc(Cl)c24)C3)C[C@@H]1CC#N [Ex 27, 6-(8-chloronaphthalen-1-yl)-1-((S)-3-(cyanomethyl)-4-(2-fluoroacryloyl)piperazin-1-yl)-3-(((S)-1-methylpyrrolidin-2-yl)methoxy)-5,6,7,8-tetrahydro-2,6-naphthyridine-4-carbonitrile] |  |  | 50 to 75% | 75 to 100%
C=CC(=O)N1CCN(c2nc(N3CCN(C(=O)C=C)CC3)c3c(c2C#N)CN(Cc2ccccc2)CC3)CC1 [Ex 32, 1,3-bis(4-acryloylpiperazin-1-yl)-6-benzyl-5,6,7,8-tetrahydro-2,6-naphthyridine-4-carbonitrile] |  |  |  | 50 to 75%
C=CC(=O)Oc1nc(N2CCN(C(=O)C=C)CC2)c2c(c1C#N)CN(Cc1ccccc1)CC2 [Ex 33, 1-(4-acryloylpiperazin-1-yl)-6-benzyl-4-cyano-5,6,7,8-tetrahydro-2,6-naphthyridin-3-yl acrylate] |  |  |  | ≤ 25%
C=CC(=O)N1CCN(c2nc(N3CCOCC3)c(C#N)c3c2CCN(Cc2ccccc2)C3)CC1 [Ex 34, 1-(4-acryloylpiperazin-1-yl)-6-benzyl-3-morpholino-5,6,7,8-tetrahydro-2,6-naphthyridine-4-carbonitrile] |  |  |  | 25 to 50%
C=CC(=O)N1CCN(c2nc(N3CCN(C)CC3)c(C#N)c3c2CCN(Cc2ccccc2)C3)CC1 [Ex 35, 1-(4-acryloylpiperazin-1-yl)-6-benzyl-3-(4-methylpiperazin-1-yl)-5,6,7,8-tetrahydro-2,6-naphthyridine-4-carbonitrile] |  |  |  | 25 to 50%
C=CC(=O)N1CCN(c2nc(N3CCN(C)CC3)c(C#N)c3c2CCN(Cc2ccccc2)C3)CC1CC#N (centres unmarked) [Ex 36, 1-(4-acryloyl-3-(cyanomethyl)piperazin-1-yl)-6-benzyl-3-(4-methylpiperazin-1-yl)-5,6,7,8-tetrahydro-2,6-naphthyridine-4-carbonitrile] |  |  |  | 25 to 50%
C=CC(=O)N1CCN(c2nc(N3CCN(C)CC3)c(C#N)c3c2CCN(C(=O)c2cccc4ccccc24)C3)CC1CC#N (centres unmarked) [Ex 37, 6-(1-naphthoyl)-1-(4-acryloyl-3-(cyanomethyl)piperazin-1-yl)-3-(4-methylpiperazin-1-yl)-5,6,7,8-tetrahydro-2,6-naphthyridine-4-carbonitrile] |  |  |  | 75 to 100%
C=CC(=O)N1CCN(c2nc(N3CCN(C)CC3)c(C#N)c3c2CCN(Cc2ccccc2)C3)[C@@H](C)C1 [Ex 38, (S)-1-(4-acryloyl-2-methylpiperazin-1-yl)-6-benzyl-3-(4-methylpiperazin-1-yl)-5,6,7,8-tetrahydro-2,6-naphthyridine-4-carbonitrile] |  |  |  | ≤ 25%
C=CC(=O)N1CCN(c2nc(N3CCN(C)CC3)c(C#N)c3c2CCN(Cc2ccccc2)C3)[C@H](C)C1 [Ex 39, (R)-1-(4-acryloyl-2-methylpiperazin-1-yl)-6-benzyl-3-(4-methylpiperazin-1-yl)-5,6,7,8-tetrahydro-2,6-naphthyridine-4-carbonitrile] |  |  |  | 25 to 50%
C=CC(=O)N1CCN(c2nc(O)c(C#N)c3c2CCN(Cc2ccccc2)C3)CC1 [Ex 40, 1-(4-acryloylpiperazin-1-yl)-6-benzyl-3-hydroxy-5,6,7,8-tetrahydro-2,6-naphthyridine-4-carbonitrile] |  |  |  | ≤ 25%
C=CC(=O)N1CCN(c2nc(N3CCN(C)CC3)c(C#N)c3c2CCN(c2cccc4ccccc24)C3)CC1 [Ex 41, 1-(4-acryloylpiperazin-1-yl)-3-(4-methylpiperazin-1-yl)-6-(naphthalen-1-yl)-5,6,7,8-tetrahydro-2,6-naphthyridine-4-carbonitrile] |  |  |  | 25 to 50%
